Laboratory results taken from US20240408167A1, “COMPOSITION FOR TREATING OCULAR DISEASES CONTAINING PEPTIDE” (Encuragen Inc., priority 2023, published 2024).
Counter-ions that a name gives are not always drawn. Like-named read-outs stand apart in the source and are kept apart here.

Tested on: BALB/3T3 clone A31 cells
Experiment: cells
Format: cell-based
Conditions: for IC50: Mus musculus, light or radiation study, BALB/3T3 clone A31 cells, neutral red
Experimental: To evaluate the phototoxicity of (PEG)-BHD1028, the potential phototoxicity of (PEG)-BHD1028 was measured in the BALB/3T3 clone A31 cells after UV exposure. The test substance and the positive control group (chlorpromazine hydrochloride; CPZ) were dissolved in a Hank's Balanced Salt Solution (HBSS) and then diluted with a Hank's Balanced Salt Solution (HBSS). The cells were trypsinized and counted. Thereafter, 1×10^4 cells per well were seeded in a 96-well plate and cultured for approximately 24 hours before treating the test samples. One hour after the sample treatment, the plate was irradiated with a UV irradiation system (UVA, 365 nm). After UV irradiation, the plate was incubated for 24 hours. The cell viability of the cultured cells was confirmed by measuring the absorbance at 540 nm using the neutral red staining method.

For `CN(C)CCCN1c2ccccc2Sc2ccc(Cl)cc21` [CPZ, chlorpromazine hydrochloride, reference compound], the “phototoxicity classification by PIF and MPE” value was “positive results”, the IC50 (UVA 365 nm irradiation, read-out: IC50 UV (+Irr)) was 1.26 µg/mL and the IC50 (without UV irradiation, read-out: IC50 UV (−Irr)) was 37.5 µg/mL. The “MPE (mean photo effect)” value (mouse, 24 h) was 0.489 and the “PIF (photo irradiation factor)” value (mouse, 24 h) was 29.668.
